Measurements from paper PMC10892142, “Synthesis and In Vitro Antitumor Activity Evaluation of Gefitinib-1,2,3-Triazole Derivatives” (Molecules, 2024).

Experiments:
A549 cells = experiment: CCK-8 assay, A549 cells; format: cell-based; settings: CCK-8, 48 h, mean ± SD, n = 3
Description: (§1) Next, cell viability was determined according to the instructions of the CCK-8 assay. Then, 10 μL CCK-8 solution was added to each well of the plate and incubated for 1–4 h in the incubator. […] The percentage of viable cells was measured using the following formula where three independent experiments were performed: [(A450sample − A450blank)/(A450control − A450blank)] × 100%.

NCI-H1437 cells = experiment: CCK-8 assay, NCI-H1437 cells; format: cell-based; settings: CCK-8, 48 h, mean ± SD, n = 3
Description: as §1

NCI-H1299 cells = experiment: CCK-8 assay, NCI-H1299 cells; format: cell-based, human; settings: CCK-8, 48 h, mean ± SD, n = 3
Description: as §1

| Compound | IC50 (A549 cells) [µM] | IC50 (NCI-H1437 cells) [µM] | IC50 (NCI-H1299 cells) [µM] | IC50 (A549 cells; Homo sapiens, A549) [µM] | IC50 (NCI-H1437 cells; Homo sapiens, NCI-H1437) [µM] | melting point [°C] | IC50 (NCI-H1299 cells; Homo sapiens, NCI-H1299) [µM] |
| --- | --- | --- | --- | --- | --- | --- | --- |
| 7-Methoxy-N-(3-(1-(2-methyl-3-nitrophenyl)-1H-1,2,3-triazol-4-yl)phenyl)-6-(3-morpholinopropoxy)quinazolin-4-amine [Compound 4g] | 4.65 ± 0.08 | 2.15 ± 0.1 | 6.02 ± 0.12 | – | – | – | – |
| COc1cc2ncnc(Nc3cccc(-c4cn(-c5ccc([N+](=O)[O-])c(C)c5)nn4)c3)c2cc1OCCCN1CCOCC1 [Compound 4f, 7-Methoxy-N-(3-(1-(3-methyl-4-nitrophenyl)-1H-1,2,3-triazol-4-yl)phenyl)-6-(3-morpholinopropoxy)quinazolin-4-amine] | – | – | – | 13.7 ± 0.71 | 9.27 ± 0.4 | 175 to 176 | 13.3 ± 0.52 |
| COc1cc2ncnc(Nc3cccc(-c4cn(-c5cccc(F)c5)nn4)c3)c2cc1OCCCN1CCOCC1 [Compound 4i, N-(3-(1-(3-Fluorophenyl)-1H-1,2,3-triazol-4-yl)phenyl)-7-methoxy-6-(3-morpholinopropoxy)quinazolin-4-amine] | – | – | – | 13 ± 0.29 | 4.77 ± 0.32 | – | 9.35 ± 0.31 |
| COc1cc2ncnc(Nc3cccc(-c4cn(-c5cccc6c5C(=O)N(C5CCC(=O)NC5=O)C6=O)nn4)c3)c2cc1OCCCN1CCOCC1 (stereo not shown) [Compound 4j, 2-(2,6-Dioxopiperidin-3-yl)-4-(4-(3-((7-methoxy-6-(3-morpholinopropoxy)quinazolin-4-yl)amino)phenyl)-1H-1,2,3-triazol-1-yl)isoindoline-1,3-dione] | – | – | – | 11.4 ± 0.89 | 6.6 ± 0.07 | 187 to 188 | 12 ± 0.33 |

Next, values leading:

| IC50 (A549 cells) [µM] | IC50 (NCI-H1437 cells) [µM] | IC50 (NCI-H1299 cells) [µM] | IC50 (A549 cells; Homo sapiens, A549) [µM] | IC50 (NCI-H1437 cells; Homo sapiens, NCI-H1437) [µM] | melting point [°C] | IC50 (NCI-H1299 cells; Homo sapiens, NCI-H1299) [µM] | Compound |
| --- | --- | --- | --- | --- | --- | --- | --- |
| – | – | – | 6.81 ± 0.33 | 2.05 ± 0.03 | 192 to 193 | 7.59 ± 0.19 | COc1cc2ncnc(Nc3cccc(-c4cn(Cc5ccc(F)c(Cl)c5)nn4)c3)c2cc1OCCCN1CCOCC1 [Compound 4a, N-(3-(1-(3-Chloro-4-fluorobenzyl)-1H-1,2,3-triazol-4-yl)phenyl)-7-methoxy-6-(3-morpholinopropoxy)quinazolin-4-amine] |
| – | – | – | 9.04 ± 0.41 | 6.41 ± 0.54 | 162 to 163 | 11.4 ± 0.97 | COc1cc2ncnc(Nc3cccc(-c4cn(-c5ccc(Cl)cc5)nn4)c3)c2cc1OCCCN1CCOCC1 [Compound 4d, N-(3-(1-(4-Chlorophenyl)-1H-1,2,3-triazol-4-yl)phenyl)-7-methoxy-6-(3-morpholinopropoxy)quinazolin-4-amine] |
| – | – | – | 8.62 ± 0.76 | 11.2 ± 0.95 | 175 to 176 | 11.9 ± 0.32 | COc1cc2ncnc(Nc3cccc(-c4cn(-c5ccccc5Br)nn4)c3)c2cc1OCCCN1CCOCC1 [Compound 4e, N-(3-(1-(2-Bromophenyl)-1H-1,2,3-triazol-4-yl)phenyl)-7-methoxy-6-(3-morpholinopropoxy)quinazolin-4-amine] |
| – | – | – | 9.81 ± 0.34 | 3.09 ± 0.13 | 167 to 168 | 7.69 ± 0.11 | COc1cc2ncnc(Nc3cccc(-c4cn(-c5ccccc5Cl)nn4)c3)c2cc1OCCCN1CCOCC1 [Compound 4h, N-(3-(1-(2-Chlorophenyl)-1H-1,2,3-triazol-4-yl)phenyl)-7-methoxy-6-(3-morpholinopropoxy)quinazolin-4-amine] |
| – | – | – | 8.95 ± 0.99 | 5.95 ± 0.72 | 177 to 178 | 7.15 ± 0.12 | COc1cc2ncnc(Nc3cccc(-c4cn(Cc5ccc(Br)cc5)nn4)c3)c2cc1OCCCN1CCOCC1 [Compound 4k, N-(3-(1-(4-Bromobenzyl)-1H-1,2,3-triazol-4-yl)phenyl)-7-methoxy-6-(3-morpholinopropoxy)quinazolin-4-amine] |
| – | – | – | 2.39 ± 0.3 | 2.53 ± 0.11 | – | 4.79 ± 0.13 | COc1cc2ncnc(Nc3cccc(-c4cn(Cc5cc(Br)cc(Br)c5)nn4)c3)c2cc1OCCCN1CCOCC1 [Compound 4m, N-(3-(1-(3,5-Dibromobenzyl)-1H-1,2,3-triazol-4-yl)phenyl)-7-methoxy-6-(3-morpholinopropoxy)quinazolin-4-amine] |
